Reference: ChEMBL document CHEMBL3301361, “Experimental in vitro DMPK and physicochemical data on a set of publicly disclosed compounds”

Key:
physchem = settings: octan-1-ol/water
in vitro = settings: human

SMILES	logD (physchem; pH 7.4, LogD7.4)	microsomal CLint (in vitro; liver microsomes) [µL/min/mg]	microsomal CLint (in vitro; microsomes) [µL/min/mg]	logD (physchem; pH 7.4)
Cc1ccc2nc(CCNCCCO)ccc2c1NC(=O)CC12CC3CC(CC(C3)C1)C2	1.18	33		
Cc1cc2c(C(=O)NC[C@H](C)c3ccccc3)c(O)c(O)cc2c(O)c1-c1c(C)cc2c(C(=O)NC[C@H](C)c3ccccc3)c(O)c(O)cc2c1O [1,1',6,6',7,7'-HEXAHYDROXY-3,3'-DIMETHYL-N5-((R)-2-PHENYLPROPYL)-N5'-((R)-2-PHENYLPROPYL)-2,2'-BINAPHTHYL-5,5'-DICARBOXAMIDE (ATROPISOMERIC MIX)]	3.48		34.7	
Cc1ccc(C(=O)NC(C)C)cc1-n1cnc2ccc(N3CCN(C)CC3)cc2c1=O	1.56	< 3		
O=C(CC1CCCCC1)Nc1c(Cl)ccc2nc(NCCCO)ccc12	3.29		25	
O=C(NCC12CC3CC(CC(C3)C1)C2)c1ccccc1Cl	4.05	69		
O=C(NC[C@@H](O)CN1CCC(Oc2ccc(Cl)c(Cl)c2)CC1)c1n[nH]c2ccccc12	2.95	< 3		
C[C@H](CO)Nc1nc(SCc2ccccc2)nc2[nH]c(=O)[nH]c12	2.75	< 3		
Cc1cc(Oc2ccc3c(c2)OCO3)nc(Oc2ccc(-n3ccnc3)cc2)n1	3.47	< 3		
COc1cccc2c(-c3c(C)n(CC(=O)O)c4ccc(C)cc34)ccnc12	0.49	5		
Cc1ccc2c(c1)C1(CCN(CCc3nc(-c4ccccc4)oc3C)CC1)OC(=O)N2		79.4		4.2
O=C(NC[C@@H](O)CN1CCC(Oc2ccc(Cl)c(Cl)c2)CC1)c1cnnc2ccccc12	3.28	8		
NC(=O)Nc1sc(-c2ccccc2)cc1C(N)=O	2.42		21	
N#Cc1ccc(Nc2nccc(NC3CC3)n2)cc1	3.01	45		
O=C(O)C(c1ccccc1)N1CCCC(CN2CCC(Oc3ccc(Cl)c(Cl)c3)CC2)C1 (centres undefined)	2.6	< 3		
COc1ccc(C)c(NC(=O)CC23CC4CC(CC(C4)C2)C3)c1	3.96	> 150		
CCCCC(CC)CNC(=O)c1cc(-n2ncc(=O)[nH]c2=O)ccc1Cl (centres undefined)	2.41	24		
COc1ccc(C=NN=Cc2ccc(OC)c(OC)c2)cc1OC	3.38	19		
Cc1ccc(C(=O)NC2CCC2)cc1-n1cnc2ccc(N3CCN(C)CC3)cc2c1=O	2.25	5		
O=C(NC[C@@H](O)CN1CCC(Oc2ccc(Cl)c(Cl)c2)CC1)n1c(=O)[nH]c2ccccc21	4.46		< 3	
c1ccc(Sc2ccc3ccccc3n2)cc1	3.92		61	
CCc1nc2c(N)nc3ccccc3c2n1Cc1ccccc1	3.29	< 3		

SMILES	logD (physchem; pH 7.4, LogD7.4)	microsomal CLint (in vitro; liver microsomes) [µL/min/mg]	microsomal CLint (in vitro; microsomes) [µL/min/mg]	logD (physchem; pH 7.4)
Cc1ccc(S(=O)(=O)NC(=O)N2CCC(N3CCC(Oc4ccc(Cl)cc4C)CC3)CC2)cc1	1.79	6		
Nc1nccc(-n2ccc3ccccc32)n1	2.71	112		
CCCCc1nc2c(N)nc3ccccc3c2n1Cc1ccccc1	4.17		6	
COc1ccc(C(=O)NCCN2CCN(Cc3ccc(Cl)c(Cl)c3)CC2)cc1Cl	3.74		50.5	
COc1ccccc1CNCCc1cccc(CCNC[C@H](O)c2ccc(O)c3[nH]c(=O)sc23)c1	0.91	56		
Cc1c(Sc2ccc(Cl)cc2)c2ccc(S(C)(=O)=O)cc2n1CC(=O)O	0.79		< 3	
Cc1c(Sc2ccc(Cl)cc2)c2c(C#N)c(Cl)ccc2n1CC(=O)O		4		
O=C(NS(=O)(=O)c1cccc(Cl)c1)N1CCC(N2CCC(Oc3ccc(Cl)c(Cl)c3)CC2)CC1	2.62	6		
CCS(=O)(=O)c1ccc(-c2cc(C(F)(F)F)ccc2OCC(N)=O)c(C)c1		< 3		
Cc1ccc2c(c1)c(Sc1ccccc1Cl)c(C)n2CC(=O)O			< 3	
CC(C)C[C@H](NC(=O)N1CCOCC1)C(=O)NCC#N	0.08	< 3		
Cc1ccc(S(=O)(=O)NC(=O)N2CCC(N3CCC(Oc4ccc(F)c(F)c4)CC3)CC2)cc1	0.75	< 3		
COc1ccc(Sc2c(C)n(CC(=O)O)c3ccc(C)cc23)cc1		< 3		
CC1CN(S(=O)(=O)c2ccccc2)CCN1Cc1cc(Cl)ccc1OCC(=O)O (centres undefined)	0.69		< 3	
O=C(Nc1ccc(S(=O)(=O)N2CCOCC2)cc1)c1cc(Cl)ccc1NS(=O)(=O)c1ccc(Cl)s1	3.02	< 3		
Cc1ccc(C#N)cc1-c1cc(C(F)(F)F)ccc1OCC(=O)O	0.15		< 3	
N#Cc1c(-c2ccccc2)nc(SCc2ccccc2)[nH]c1=O	1.56		6	
NS(=O)(=O)c1ccc(Nc2nccc(-c3ccccc3)n2)cc1	2.86	< 3		
Cc1c(Cl)ccc(OC2CCN(C[C@H](O)CNC(=O)c3c[nH]c(=O)c4ccc(S(C)(=O)=O)cc34)CC2)c1Cl		< 3		
CCO/N=C(\c1ccc(Br)cc1)C1CCN(C2(C)CCN(C(=O)c3c(Cl)cncc3Cl)CC2)CC1	4	4		
C[C@H](CO)Nc1nc(SCc2cccc(F)c2F)nc2[nH]c(=O)ccc12	3.36	9		

SMILES	logD (physchem; pH 7.4, LogD7.4)	microsomal CLint (in vitro; liver microsomes) [µL/min/mg]	microsomal CLint (in vitro; microsomes) [µL/min/mg]	logD (physchem; pH 7.4)
CC1(C)[C@@H]2CC[C@@]1(CS(=O)(=O)NC1CCN(c3ccc(C(F)(F)F)cn3)CC1)C(=O)C2	3.84	75		
O=C(NC[C@@H](O)CN1CCC(Oc2ccc(Cl)c(Cl)c2)CC1)c1c[nH]c2ccccc12	3.91		< 3	
Cc1ccc(NC(=O)c2ccno2)cc1-n1cnc2ccc(N3CCN(C)CC3)cc2c1=O		< 3		
O=C(O)[C@@H](c1ccccc1)N1CCC(CN2CCC(Oc3ccc(Cl)c(Cl)c3)CC2)CC1	2.14		< 3	
CCN(C(=O)Cc1ccc(S(C)(=O)=O)cc1)C1CCN(CCC(c2ccccc2)c2ccccc2)CC1	3	16		
Cc1cc(Cl)ccc1OC1CCN(C[C@H](O)CNC(=O)c2c[nH]nc2C(F)(F)F)CC1	3.02		< 3	
O=c1[nH]c2c(O)ccc([C@@H](O)CNCCCSCCNCCc3cccc(Cl)c3)c2s1	1.06	20		
CCN(C(=O)Cc1ccc(S(C)(=O)=O)cc1)C1CCN(CC[C@@H](c2cc(C)cc(C)c2)C2CCN(S(C)(=O)=O)CC2)CC1		> 150		
c1cn(-c2ccc(Oc3nccc(Oc4ccc5c(c4)OCO5)n3)cc2)cn1	3.27		13	
C[C@H]1CN(Cc2cc(Cl)ccc2OC(C)(C)C(=O)O)CCN1S(=O)(=O)c1ccccc1	0.54		< 3	
O=C(O)CSCC(=O)Nc1nc(-c2ccc(F)cc2)cs1	-0.2	< 3		
COc1ccc(-c2ccnc(N)n2)cc1	2.08	41		
Cc1c(Cl)ccc(OC2CCN(C[C@H](O)CNC(=O)c3c[nH]nc3C(F)(F)F)CC2)c1Cl	3.66	< 3		
O=C(NS(=O)(=O)Cc1ccccc1)N1CCC(N2CCC(Oc3ccc(Cl)c(Cl)c3)CC2)CC1	2.13	< 3		
Cc1ccc2c(c1)c([S+]([O-])c1ccc(Cl)cc1)c(C)n2CC(=O)O (centres undefined)	0.05	3		
CCCCc1nc2c(N)nc3ccccc3c2n1CC(C)(C)O		< 3		
O=C(O)COc1ccc(Cl)cc1CN1CCCN(S(=O)(=O)c2ccccc2)CC1			< 3	
CN(C)CCCOc1ccc(-c2cc(C(N)=O)c(NC(N)=O)s2)cc1	0.64	6		
CN1CCN(C(=O)c2cc3cc(Br)ccc3[nH]2)CC1	2.79	20.5		
CNC(=O)c1cccc2c1c(Sc1ccc(Cl)cc1)c(C)n2CC(=O)O	-0.89	< 3		
Cc1c(Sc2ccc(Cl)cc2)c2cc(Cl)ccc2n1CC(=O)O	2.87	< 3		

SMILES	logD (physchem; pH 7.4, LogD7.4)	microsomal CLint (in vitro; liver microsomes) [µL/min/mg]	microsomal CLint (in vitro; microsomes) [µL/min/mg]	logD (physchem; pH 7.4)
Cc1ccc(NC(=O)c2cscn2)cc1-n1cnc2ccc(N3CCN(C)CC3)cc2c1=O		< 3		
O=C(NC[C@@H](O)CN1CCC(Oc2ccc(Cl)c(Cl)c2)CC1)c1n[nH]c(=O)c2ccccc12	3.69	3		
COCCNCc1ccc(Nc2ncc3cc(-c4ccncc4)ccc3n2)cc1	1.86	42.7		
CN(C(=O)Cc1ccc(S(N)(=O)=O)cc1)C1CCN(CCC(c2ccccc2)c2ccccc2)CC1		12		
Cc1c(Sc2ccc(Cl)cc2)c2c(-c3ccccc3)cccc2n1CC(=O)O		< 3		
NC(=O)c1sc(-c2ccc(Cl)cc2)cc1N		31		
N#Cc1cccc(C[C@@H](C(=O)O)N2CCC(CN3CCC(Oc4ccc(Cl)c(Cl)c4)CC3)CC2)c1		< 3		
N=C(N)c1cc2c(OCc3ccccc3)cccc2s1		11		
O=C(O)COc1ccc(C(F)(F)F)cc1-c1ccccc1-c1ccccc1			< 3	
O=C(O)COc1ccc(Br)cc1-c1ccccc1		< 3		
CCN(CC)Cc1cc(Nc2ccnc3cc(Cl)ccc23)ccc1O [AMODIAQUINE]			> 150	
Cc1c(Sc2ccc(Cl)cc2)c2ccc(Cl)cc2n1CC(=O)O		< 3		
Nc1nc(-c2ccccn2)nc(N)c1Cc1ccc(Cl)cc1Cl		37.1		
Cc1ccc(NC(=O)c2cccc(N3CCOCC3)c2)cc1NC(=O)c1ccc(OCc2ccccn2)cc1		30.3		
Cc1c(Sc2ccc(Cl)cc2)c2cccc(Cl)c2n1CC(=O)O		< 3		
CCc1nc2c(N)nc3ccccc3c2n1CC(C)(C)O		< 3		
CC[C@H](CO)Nc1nc(SCc2cccc(F)c2F)nc2nc(NC(C)C)sc12		42		
C[C@@H]1CN(Cc2cc(Cl)ccc2OCC(=O)O)C[C@H](C)N1C(=O)Cc1ccccc1			< 3	
COc1cccc(NC(=O)CC23CC4CC(CC(C4)C2)C3)c1C		> 150		
Cc1ccccc1CCOCCCS(=O)(=O)CCNCCc1ccc(O)c2nc(O)sc12		> 150		
